# Assay results taken from publication PMC4232510, “Identification of Functionally Important Residues of the Rat P2X4 Receptor by Alanine Scanning Mutagenesis of the Dorsal Fin and Left Flipper Domains” (PLoS ONE, 2014).
# Positions count from the first letter of the chain named.
# Key:
# [1] = target: T1, rP2X4R P207A mutant (Rattus norvegicus, UniProt P51577, P207A); test: whole-cell patch clamp, HEK293T cells expressing mutant; assay type: cell-based
# T1 construct: expressed in transfected cells; host or cells: HEK293T
# T1 sequence (P51577 1-388 P207A): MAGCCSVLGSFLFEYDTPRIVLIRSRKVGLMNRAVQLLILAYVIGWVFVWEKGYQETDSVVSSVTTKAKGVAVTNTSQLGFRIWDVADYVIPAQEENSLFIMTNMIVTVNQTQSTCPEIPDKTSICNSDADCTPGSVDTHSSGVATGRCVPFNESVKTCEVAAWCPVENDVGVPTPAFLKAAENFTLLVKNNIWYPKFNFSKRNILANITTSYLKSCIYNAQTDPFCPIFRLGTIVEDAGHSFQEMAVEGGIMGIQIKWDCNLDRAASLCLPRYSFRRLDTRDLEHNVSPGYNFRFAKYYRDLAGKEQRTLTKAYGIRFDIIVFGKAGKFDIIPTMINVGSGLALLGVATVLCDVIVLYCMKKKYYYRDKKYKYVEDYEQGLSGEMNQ
# [2] = target: T2, rP2X4R S289A mutant (Rattus norvegicus, UniProt P51577, S289A); test: as above; assay type: cell-based
# T2 construct: expressed in transfected cells; host or cells: HEK293T
# T2 sequence (P51577 1-388 S289A): T1 sequence (P51577 1-388 P207A) with A207P, S289A
# [3] = 100 µM ATP 60 s, biexponential fit
# [4] = contribution of τdes2, 100 µM ATP 60 s
# [5] = naïve receptors, 2–5 s application
# [6] = 3 µM IVM 4-6 min vs IVM-untreated
Compound,"τdes1 [1, 3]","τdes2 [1, 3]","A2 /(A1+A2) [1, 4]","EC50 [1, 5]","τdes ([1]; weighted, 100 µM ATP 60 s)","τdes1 [2, 3]","τdes2 [2, 3]",Imax ([2]; 100–1000 µM ATP),Imax+IVM ([2]; ATP after 3 µM IVM 4-6 min),"A2 /(A1+A2) [2, 4]","τoff +IVM ([2]; decay after removal of 1 or 3 µM ATP, 3 µM IVM)","EC50 [2, 5]","τdes ([2]; weighted, 100 µM ATP 60 s)","Fold incr. Imax [1, 6]","Fold incr. Imax [2, 6]"
Nc1ncnc2c1ncn2[C@@H]1O[C@H](COP(=O)(O)OP(=O)(O)OP(=O)(O)O)[C@@H](O)[C@H]1O [ATP],0.7 ± 0.1 s,5.6 ± 0.2 s,71 ± 2%,2100 ± 1100 nM,4.1 ± 0.2 s,0.9 ± 0.3 s,11.3 ± 0.6 s,1.4 ± 0.2 nA,4.5 ± 1.1 nA,56 ± 7%,15 ± 1.1 s,3600 ± 1900 nM,6.8 ± 1.0 s,,
"CC[C@H](C)[C@H]1O[C@]2(CC[C@@H]1C)C[C@@H]1C[C@@H](C/C=C(\C)[C@@H](O[C@H]3C[C@H](OC)[C@@H](O[C@H]4C[C@H](OC)[C@@H](O)[C@H](C)O4)[C@H](C)O3)[C@@H](C)/C=C/C=C3\CO[C@@H]4[C@H](O)C(C)=C[C@@H](C(=O)O1)[C@]34O)O2 [IVM, ivermectin]",,,,,,,,,,,,,,1.5 ± 0.3 fold,3.2 ± 0.2 fold
